Laboratory results published in patent publication US20160318987A1 (MEDIMMUNE LIMITED, priority 2013, published 2016).
Read-outs that look alike come from different tables or passages of the source. *1 amine or outer side, *2 acyl side, *3 side chain or, on linkers, in order; H or OH if unused. Where a SMILES comes first, the peptide text is derived from it. Primed or numbered codes have the meaning given here. Where no end group is shown, it is not given here. Side-chain parts run from the residue outwards. [ ]: non-standard residue; d: D form. The star is where a group is joined. ξ: configuration not given here. Palmitoyl(16-(5-tetrazolyl)) = O=C(CCCCCCCCCCCCCCCc1nnn[nH]1)*; γGlu = O=C(O)[C@H](CCC(=O)[*:2])N[*:1]; Palmitoyl = CCCCCCCCCCCCCCCC(=O)*; αMeF = C[C@](N)(Cc1ccccc1)C(=O)O; ξαMeF = CC(N)(Cc1ccccc1)C(=O)O; αMeK = C[C@](N)(CCCCN)C(=O)O; ξαMeK = CC(N)(CCCCN)C(=O)O; PEG2′ = not defined here; Aib = CC(C)(N)C(=O)O

How the values were obtained:
[1] = test system: DPP-IV, Neprilysin, Chymotrypsin, Trypsin, Pepsin; test: enzyme resistance, protease panel (Table 2 description); assay type: in vitro ADME
Protocol: Peptides for evaluation were prepared to a concentration of 1.0 mg/mL solutions in either pure water, sterile saline for injection (0.9% w/v NaCl/water) or 1× PBS (Dulbecco). 100 μL (100 μg/mL peptide) of these solutions was added to 900 μL of each protease solution. Additional experiments were performed examining protein degradation during exposure to serum and gastric fluid. For serum studies, peptides were incubated with 50% female Sprague-Dawley strain rat serum (SD rat serum). For gastric fluid studies, peptides were incubated 1:1 (volume:volume), fresh rat gastric fluid.
The peptide and enzyme (or serum or gastric fluid) were co-incubated in a temperature regulated water bath at 37° C. for the duration of the experiment. During each experiment 100 μL aliquots (10 μg peptide) of the incubated peptide-enzyme mixture were withdrawn periodically, quenched by addition of an equal volume of 5% TFA (v/v) in 1:1 water/acetonitrile to arrest proteolytic activity, and analyzed by liquid chromatography-mass spectrometry (LC/MS): Agilent Polaris C8-A column (4.6×100 mm, 3 micron) using a linear binary gradient of 10-90% MeCN (0.1% TFA v/v) in water (0.1% TFA v/v) over 30 minutes at 1.5 mL min^−1 at ambient temperature. Analytes were detected by both UV absorption at 210 nm and ionization using a Waters 3100 mass detector (ESI^+ mode). New peptidic species (fragments) derived from enzymatic cleavage of peptides were analyzed post-process, and their molecular masses were used to identify the precise cleavage position (highlighting the scissile bond in each case).

hGluc-R = target: T1, hGluc-R (Homo sapiens, UniProt P47871); test: cAMP functional assay, cells expressing human glucagon receptor (primary assay); assay type: cell-based; conditions: n = 2
T1 construct: expressed in transfected cells

hGIP-R = target: T2, hGIP-R (Homo sapiens, UniProt P48546); test: cAMP functional assay, cells expressing human GIP receptor (primary assay); assay type: cell-based; conditions: n = 2
T2 construct: expressed in transfected cells
T2 sequence (P48546 22-466): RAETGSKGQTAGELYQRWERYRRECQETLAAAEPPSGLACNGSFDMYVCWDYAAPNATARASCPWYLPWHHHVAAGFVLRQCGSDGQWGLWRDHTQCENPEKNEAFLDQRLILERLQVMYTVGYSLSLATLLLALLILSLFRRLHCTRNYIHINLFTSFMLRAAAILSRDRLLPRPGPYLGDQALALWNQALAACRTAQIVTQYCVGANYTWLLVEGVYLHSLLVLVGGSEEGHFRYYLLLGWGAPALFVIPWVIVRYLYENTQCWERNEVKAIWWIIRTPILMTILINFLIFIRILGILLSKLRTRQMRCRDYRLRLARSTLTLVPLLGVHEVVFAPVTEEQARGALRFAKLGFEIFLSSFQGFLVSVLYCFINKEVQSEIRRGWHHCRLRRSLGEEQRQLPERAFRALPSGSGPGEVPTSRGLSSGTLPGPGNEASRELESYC

hGLP-1R = target: T3, hGLP-1R (Homo sapiens, UniProt P43220); test: cAMP functional assay, cells expressing human GLP-1 receptor (primary assay); assay type: cell-based; conditions: n = 2
T3 construct: expressed in transfected cells
T3 sequence (P43220 24-463): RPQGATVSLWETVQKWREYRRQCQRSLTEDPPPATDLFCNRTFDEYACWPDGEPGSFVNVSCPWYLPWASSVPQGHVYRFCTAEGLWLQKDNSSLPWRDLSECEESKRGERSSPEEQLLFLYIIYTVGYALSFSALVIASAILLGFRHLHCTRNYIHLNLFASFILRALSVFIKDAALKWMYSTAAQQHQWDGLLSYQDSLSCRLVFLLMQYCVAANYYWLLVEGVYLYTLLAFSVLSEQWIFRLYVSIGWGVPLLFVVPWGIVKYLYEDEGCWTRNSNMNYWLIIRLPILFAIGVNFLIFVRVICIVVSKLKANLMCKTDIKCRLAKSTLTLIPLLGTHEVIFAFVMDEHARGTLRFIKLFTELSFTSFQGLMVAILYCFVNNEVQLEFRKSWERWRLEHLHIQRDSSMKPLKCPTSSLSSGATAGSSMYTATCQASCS

T1 sequence (P47871 26-477): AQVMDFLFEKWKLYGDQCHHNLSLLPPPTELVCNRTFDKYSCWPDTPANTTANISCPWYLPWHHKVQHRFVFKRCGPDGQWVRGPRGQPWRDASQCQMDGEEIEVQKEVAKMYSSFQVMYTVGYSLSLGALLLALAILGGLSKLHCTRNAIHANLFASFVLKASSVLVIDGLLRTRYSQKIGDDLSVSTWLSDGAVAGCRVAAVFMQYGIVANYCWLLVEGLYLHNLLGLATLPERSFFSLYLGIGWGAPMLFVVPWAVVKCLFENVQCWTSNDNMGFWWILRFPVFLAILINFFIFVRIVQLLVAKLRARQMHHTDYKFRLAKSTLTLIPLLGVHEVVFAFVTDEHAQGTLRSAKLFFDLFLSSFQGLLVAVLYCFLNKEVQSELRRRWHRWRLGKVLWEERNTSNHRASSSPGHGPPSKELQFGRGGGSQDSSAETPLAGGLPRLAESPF

Molecule	enzyme resistance (DPP-IV, Neprilysin, Chymotrypsin, Trypsin, Pepsin) [1]	EC50 (hGluc-R) [nM]	EC50 (hGIP-R) [nM]	EC50 (hGLP-1R) [nM]	EC50 (hGLP-1R; read-out: Primary assay EC50 (n = 2) hGLP-1R) [nM]
CCCCCCCCCCCCCCCC(=O)N[C@@H](CCC(=O)NCCCC[C@H](NC(=O)CNC(=O)CNC(=O)C(C)(CCCCN)NC(=O)[C@@H](NC(=O)[C@@H](NC(=O)C(C)(Cc1ccccc1)NC(=O)[C@H](C)NC(=O)[C@@H](NC(=O)C(C)(Cc1ccccc1)NC(=O)[C@H](CCC(=O)O)NC(=O)C(C)(CCCCN)NC(=O)[C@H](C)NC(=O)[C@H](C)NC(=O)[C@H](CCC(N)=O)NC(=O)CNC(=O)[C@H](CCC(=O)O)NC(=O)[C@H](CC(C)C)NC(=O)C(C)(Cc1ccccc1)NC(=O)[C@H](CO)NC(=O)[C@H](CO)NC(=O)[C@@H](NC(=O)[C@H](CC(=O)O)NC(=O)[C@H](CO)NC(=O)[C@@H](NC(=O)C(C)(Cc1ccccc1)NC(=O)[C@H](CO)NC(=O)CNC(=O)[C@H](CCC(=O)O)NC(=O)C(C)(C)NC(=O)[C@@H](N)Cc1c[nH]cn1)[C@@H](C)O)C(C)C)[C@@H](C)CC)C(C)C)C(C)C)C(N)=O)C(=O)O (stereo partly drawn) [SEQ ID NO: 54, H-(Aib)^2-EG-(S)^5-(α-MeF)^6-TSDV^10 SS-(α-MeF)^13-LE^15 GQAA-(α-MeK)^20 E-(α-MeF)^22-IA-(α-MeF)^25-(V)^26-V-(α-MeK)^28-G-(G)^30-K(Ε-γ-E-Palm)] (H-H[Aib]EGS[ξαMeF]TSDVSS[ξαMeF]LEGQAA[ξαMeK]E[ξαMeF]IA[ξαMeF]VV[ξαMeK]GGK([γGlu-Palmitoyl])-NH2)	Excellent enzyme resistance	–	–	–	–
CCCCCCCCCCCCCCCC(=O)N[C@@H](CCC(=O)NCCCC[C@H](NC(=O)CNC(=O)CNC(=O)[C@](C)(CCCCN)NC(=O)[C@@H](NC(=O)[C@@H](NC(=O)[C@](C)(Cc1ccccc1)NC(=O)[C@H](C)NC(=O)[C@@H](NC(=O)[C@](C)(Cc1ccccc1)NC(=O)[C@H](CCC(=O)O)NC(=O)[C@](C)(CCCCN)NC(=O)[C@H](C)NC(=O)[C@H](C)NC(=O)[C@H](CCC(=O)O)NC(=O)CNC(=O)[C@H](CCC(=O)O)NC(=O)[C@H](CC(C)C)NC(=O)[C@](C)(Cc1ccccc1)NC(=O)[C@H](CO)NC(=O)[C@H](CO)NC(=O)[C@@H](NC(=O)[C@H](CC(=O)O)NC(=O)[C@H](CO)NC(=O)[C@@H](NC(=O)[C@](C)(Cc1ccccc1)NC(=O)[C@H](CO)NC(=O)CNC(=O)[C@H](CCC(=O)O)NC(=O)C(C)(C)NC(=O)[C@@H](N)Cc1c[nH]cn1)[C@@H](C)O)C(C)C)[C@@H](C)CC)C(C)C)C(C)C)C(N)=O)C(=O)O [SEQ ID NO: 59, H-(Aib)^2-EG-(S)^5-(α-MeF)^6-TSDV^10 SS-(α-MeF)^13-LE^15 G-(E)^17-AA-(α-MeK)^20 E-(α-MeF)^22-IA-(α-MeF)^25-(V)^26-V-(α-MeK)^28-G-(G)^30-K(Ε-γ-E-Palm)] (H-H[Aib]EGS[αMeF]TSDVSS[αMeF]LEGEAA[αMeK]E[αMeF]IA[αMeF]VV[αMeK]GGK([γGlu-Palmitoyl])-NH2)	Excellent enzyme resistance	89.8	89.8	0.218	–
CC[C@H](C)[C@H](NC(=O)[C@](C)(Cc1ccccc1)NC(=O)[C@H](CCC(=O)O)NC(=O)[C@](C)(CCCCN)NC(=O)[C@H](C)NC(=O)[C@H](C)NC(=O)[C@H](CCC(=O)O)NC(=O)CNC(=O)[C@H](CCC(=O)O)NC(=O)[C@H](CC(C)C)NC(=O)[C@](C)(Cc1ccccc1)NC(=O)[C@H](CO)NC(=O)[C@H](CO)NC(=O)[C@@H](NC(=O)[C@H](CC(=O)O)NC(=O)[C@H](CO)NC(=O)[C@@H](NC(=O)[C@](C)(Cc1ccccc1)NC(=O)[C@H](CO)NC(=O)CNC(=O)[C@H](CCC(=O)O)NC(=O)C(C)(C)NC(=O)[C@@H](N)Cc1c[nH]cn1)[C@@H](C)O)C(C)C)C(=O)N[C@@H](C)C(=O)N[C@@](C)(Cc1ccccc1)C(=O)N[C@H](C(=O)N[C@H](C(=O)N[C@@](C)(CCCCN)C(=O)NCC(=O)NCC(N)=O)C(C)C)C(C)C [SEQ ID NO: 60, H-(Aib)^2-EG-(S)^5-(α-MeF)^6-TSDV^10 SS-(α-MeF)^13-LE^15 G-(E)^17-AA-(α-MeK)^20 E-(α-MeF)^22-IA-(α-MeF)^25-(V)^26-V-(α-MeK)^28-G-(G)^30]	Excellent enzyme resistance	66.3	104	0.0212	–
CC[C@H](C)[C@H](NC(=O)[C@](C)(Cc1ccccc1)NC(=O)[C@H](CCC(=O)O)NC(=O)[C@](C)(CCCCN)NC(=O)[C@H](C)NC(=O)[C@H](C)NC(=O)[C@H](CCC(=O)O)NC(=O)CNC(=O)[C@H](CCC(=O)O)NC(=O)[C@H](CC(C)C)NC(=O)[C@](C)(Cc1ccccc1)NC(=O)[C@H](CO)NC(=O)[C@H](CO)NC(=O)[C@@H](NC(=O)[C@H](CC(=O)O)NC(=O)[C@H](CO)NC(=O)[C@@H](NC(=O)[C@](C)(Cc1ccccc1)NC(=O)[C@H](CO)NC(=O)CNC(=O)[C@H](CCC(=O)O)NC(=O)C(C)(C)NC(=O)[C@@H](N)Cc1c[nH]cn1)[C@@H](C)O)C(C)C)C(=O)N[C@@H](C)C(=O)N[C@@](C)(Cc1ccccc1)C(=O)N[C@H](C(=O)N[C@H](C(=O)N[C@@](C)(CCCCN)C(=O)NCC(=O)NCC(=O)N[C@@H](CCCCN)C(N)=O)C(C)C)C(C)C [SEQ ID NO: 61, H-(Aib)^2-EG-(S)^5-(α-MeF)^6-TSDV^10 SS-(α-MeF)^13-LE^15 G-(E)^17-AA-(α-MeK)^20 E-(α-MeF)^22-IA-(α-MeF)^25-(V)^26-V-(α-MeK)^28-G-(G)^30-(K)^31] (H-H[Aib]EGS[αMeF]TSDVSS[αMeF]LEGEAA[αMeK]E[αMeF]IA[αMeF]VV[αMeK]GGK-NH2)	Excellent enzyme resistance	30.4	99.7	0.034	–
H-(Aib)^2-EG-(S)^5-(α-MeF)^6-TSDV^10 SS-(α-MeF)^13-LE^15 GQAA-(α-MeK)^20 E-(α-MeF)22^-IA-(α-MeF)^25-(V)^26-V-(α-MeK)^28-G-(G)^30-K(Ε-γ-E-Tetrazolylpalm) (H[Aib]EGS[αMeF]TSDVSS[αMeF]LEGQAA[αMeK]E[αMeF]IA[αMeF]VV[αMeK]GGK([γGlu-Palmitoyl(16-(5-tetrazolyl))])) [SEQ ID NO: 55]	Excellent enzyme resistance	–	–	–	–
H-(Aib)^2-EG-(S)^5-(α-MeF)^6-TSDV^10 SS-(α-MeF)^13-LE^15 GQAA-(α-MeK)^20 E-(α-MeF)^22-IA-(α-MeF)^25-(V)^26-V-(α-MeK)^28-G-(G)^30-K(Ε-Tetrazolylpalm) (H[Aib]EGS[αMeF]TSDVSS[αMeF]LEGQAA[αMeK]E[αMeF]IA[αMeF]VV[αMeK]GGK(Palmitoyl(16-(5-tetrazolyl))); not fully specified (C-terminus); printed as H-(Aib)^2-EG-(S)^5-(α-MeF)^6-TSDV^10 SS-(α-MeF)^13-LE^15 GQAA-(α-MeK)^20 E-(α-MeF)^22-IA-(α-MeF)^25-(V)^26-V-(α-MeK)^28-G-(G)^30-K(Ε-Tetrazolylpalm)) [SEQ ID NO: 53]	Excellent enzyme resistance	–	–	–	0.0451
H-(Aib)^2-EG-(S)^5-(α-MeF)^6-TSDV^10 SS-(α-MeF)^13-LE^15 GQAA-(α-MeK)^20 E-(α-MeF)^22-IA-(α-MeF)^25-(V)^26-V-(α-MeK)^28-G-(G)^30-K(Ε-γ-E-(PEG)^2-Tetrazolylpalm) (H[Aib]EGS[αMeF]TSDVSS[αMeF]LEGQAA[αMeK]E[αMeF]IA[αMeF]VV[αMeK]GGK([γGlu-PEG2′-Palmitoyl(16-(5-tetrazolyl))]); not fully specified; printed as H-(Aib)^2-EG-(S)^5-(α-MeF)^6-TSDV^10 SS-(α-MeF)^13-LE^15 GQAA-(α-MeK)^20 E-(α-MeF)^22-IA-(α-MeF)^25-(V)^26-V-(α-MeK)^28-G-(G)^30-K(Ε-γ-E-(PEG)^2-Tetrazolylpalm)) [SEQ ID NO: 56]	Excellent enzyme resistance	–	–	–	–
